Patent US11965039B2, “Compstatin analogues and their medical uses” (priority 2018, dated 2024)
pIC50: −log10 of the molar value. Read-outs that look alike come from different tables or passages of the source. Starred links: 1 amine or outer side, 2 acyl side, 3 side chain; linkers in the order of their positions; H or OH if unused. Positions of bridges follow the written chain, without caps; N, C: chain ends. Non-standard residues stand in square brackets, D forms with d. Residues, ends and D or L forms follow the SMILES beside them. Groups on a side chain read outwards from the residue. *: point of attachment. Trp(1-Me) = Cn1cc(C[C@H](N)C(=O)O)c2ccccc21; C18 diacid = O=C(O)CCCCCCCCCCCCCCCCC(=O)*; γGlu = O=C(O)[C@H](CCC(=O)[*:2])N[*:1]; NMeI = CC[C@H](C)[C@H](NC)C(=O)O; AEEA = NCCOCCOCC(=O)O; Sar = CNCC(=O)O

Test system: classical complement pathway
Test: In vitro haemolysis assay (inhibition of classical complement pathway)
Type: cell-based, human
Description: The in vitro effect of the compounds of the present invention was assessed by measuring their inhibitory effect of the classical complement pathway in a haemolysis assay. Briefly, compounds of the present invention and reference compounds were dissolved in DMSO and diluted in Tris/Casein Assay Buffer (10 mM Tris, 145 mM NaCl, 0.5 mM MgCl2, 0.15 mM CaCl2), and 0.1% W/V Casein, adjusted to pH 7.4) as 9-point serial dilutions in a 96 well plate. Sensitized sheep red blood cells (RBC) coated with rabbit anti-sheep erythrocyte antiserum (Complement Technology, Inc., TX, USA) were washed in Tris/Casein Assay Buffer. […] from each well of diluted compound was added to a 96-well plate containing 50 μL diluted human serum (Complement Technology, Inc., TX, USA) and incubated for 15 minutes at room temperature. The serum dilution factor was optimized for every serum batch to obtain 70-90% of maximal haemolysis using the protocol. Then 50 μL sensitized sheep red blood cells were added to all wells (10^7 per well). After 30 minutes of incubation at 37 QC with gentle agitation, the reaction was stopped by addition of 50 μL Tris STOP Buffer per well (10 mM EDTA, 10 mM Tris, 145 mM NaCl adjusted to pH 7.4). The RBCs were then removed by centrifugation and the resulting supernatant measured for hemolysis by absorbance at 405 nm. The response was normalized relative to a positive and negative control (vehicle) to calculate the IC50 from the concentration response curve using the 4-parameter logistic (4PL) nonlinear model for curve fitting.

[1] = human serum, sensitized sheep red blood cells, Table 3, given as upper bounds, read-out: IC50, inhibition of hemolysis
[2] = human serum, sensitized sheep red blood cells, Table 4, valine 3 vs isoleucine 3 pairs, read-out: CP hemolysis IC50

| SMILES | pIC50 [1] | other results |
| --- | --- | --- |
| CC[C@H](C)[C@H](NC(C)=O)C(=O)N[C@H]1CSSC[C@@H](C(=O)N[C@H](C(=O)NCC(=O)N[C@@H](C)C(=O)N[C@@H](CCC(=O)O)C(=O)N[C@@H](CO)C(N)=O)[C@@H](C)O)NC(=O)[C@H](CCCNC(=N)N)NC(=O)[C@H](Cc2c[nH]cn2)NC(=O)[C@H](C)NC(=O)CNC(=O)[C@H](Cc2c[nH]c3ccccc23)NC(=O)[C@H](CC(=O)O)NC(=O)[C@H](CCC(N)=O)NC(=O)[C@H](Cc2c[nH]c3ccccc23)NC(=O)[C@H]([C@@H](C)CC)NC1=O [Compound 47] (Ac-ICIWQDWGAHRCTGAES-NH2; disulfide 2-12) | > 7.00 | – |
| CC[C@H](C)[C@H](NC(C)=O)C(=O)N[C@H]1CSSC[C@@H](C(=O)N[C@H](C(N)=O)[C@@H](C)O)NC(=O)[C@H](CCCNC(=N)N)NC(=O)[C@H](Cc2c[nH]cn2)NC(=O)[C@H](Cc2c[nH]cn2)NC(=O)CNC(=O)[C@H](Cc2c[nH]c3ccccc23)NC(=O)[C@H](CC(=O)O)NC(=O)[C@H](CCC(N)=O)NC(=O)[C@H](C(C)C)NC(=O)[C@H](C(C)C)NC1=O [Ac-compstatin, reference compound] | – | IC50 (human serum, sensitized sheep red blood cells, Table 3, cells printed in μM, read-out: IC50, inhibition of hemolysis): > 5 µM |
| CC[C@H](C)[C@@H]1NC(=O)[C@@H](NC(=O)[C@@H](NC(=O)[C@H](CCCCN)NC(=O)[C@H](CCC(=O)O)NC(=O)[C@H](CCCCN)NC(C)=O)[C@@H](C)CC)CSSC[C@@H](C(=O)N[C@H](C(=O)N[C@@H](CCC(=O)O)C(=O)N[C@@H](CCCCN)C(=O)N[C@@H](CCC(=O)O)C(N)=O)[C@@H](C)O)NC(=O)[C@H](CCCNC(=N)N)NC(=O)[C@H](Cc2c[nH]cn2)NC(=O)[C@H](CCC(=O)O)NC(=O)CNC(=O)[C@H](Cc2c[nH]c3ccccc23)NC(=O)[C@H](CC(=O)O)NC(=O)[C@H](CCC(N)=O)NC(=O)[C@H](Cc2c[nH]c3ccccc23)NC1=O [Compound 37] (Ac-KEKICIWQDWGEHRCTEKE-NH2; disulfide 5-15) | > 6.60 | – |
| CC[C@H](C)[C@@H]1NC(=O)[C@@H](NC(=O)CN(C)C(=O)[C@H](CCC(=O)O)NC(=O)[C@H](CO)NC(C)=O)CSSC[C@@H](C(=O)N[C@H](C(=O)N[C@@H](CCC(=O)O)C(=O)N[C@@H](C)C(N)=O)[C@@H](C)O)NC(=O)[C@H](CCCNC(=N)N)NC(=O)[C@H](Cc2c[nH]cn2)NC(=O)[C@H](CCC(=O)O)NC(=O)CN(C)C(=O)[C@H](Cc2c[nH]c3ccccc23)NC(=O)[C@H](CCC(=O)O)NC(=O)[C@H](CCC(N)=O)NC(=O)[C@H](Cc2cn(C)c3ccccc23)NC1=O [Compound 89, Ac-SE[Sar]C(1)I[1-Me-Trp]QEW[Sar]EHRC(1)TEA-NH2] (Ac-SE[Sar]CI[Trp(1-Me)]QEW[Sar]EHRCTEA-NH2; disulfide 4-14) | > 7.00 | – |
| CC[C@H](C)[C@H](NC(C)=O)C(=O)N[C@H]1CSSC[C@@H](C(=O)N[C@@H](CCC(=O)O)C(N)=O)NC(=O)[C@H](CCCNC(=N)N)NC(=O)[C@H](Cc2c[nH]cn2)NC(=O)[C@H](C)NC(=O)CNC(=O)[C@H](Cc2c[nH]c3ccccc23)NC(=O)[C@H](CC(=O)O)NC(=O)[C@H](CCC(N)=O)NC(=O)[C@H](Cc2c[nH]c3ccccc23)NC(=O)[C@H]([C@@H](C)CC)NC1=O [Compound 12] (Ac-ICIWQDWGAHRCE-NH2; disulfide 2-12) | > 7.00 | – |
| CC[C@H](C)[C@H](NC(C)=O)C(=O)N[C@H]1CSSC[C@@H](C(=O)N[C@H](C(N)=O)[C@@H](C)O)NC(=O)[C@H](CCCNC(=N)N)NC(=O)[C@H](Cc2c[nH]cn2)NC(=O)[C@H](CCC(=O)O)NC(=O)CNC(=O)[C@H](Cc2c[nH]c3ccccc23)NC(=O)[C@H](CC(=O)O)NC(=O)[C@H](CCC(N)=O)NC(=O)[C@H](Cc2c[nH]c3ccccc23)NC(=O)[C@H]([C@@H](C)CC)NC1=O [Compound 2] (Ac-ICIWQDWGEHRCT-NH2; disulfide 2-12) | > 7.00 | pIC50 (Table 5, different residues at position 3 of Ac-IC(1)XWQDWGEHRC(1)T-NH2, read-out: IC50, CP hemolysis): > 7.00; pIC50 [2]: 7.03 |
| CC[C@H](C)[C@H](NC(C)=O)C(=O)N[C@H]1CSSC[C@@H](C(=O)N[C@H](C(N)=O)[C@@H](C)O)NC(=O)[C@H](CCCNC(=N)N)NC(=O)[C@H](Cc2c[nH]cn2)NC(=O)[C@H](CO)NC(=O)CNC(=O)[C@H](Cc2c[nH]c3ccccc23)NC(=O)[C@H](CC(=O)O)NC(=O)[C@H](CCC(N)=O)NC(=O)[C@H](Cc2c[nH]c3ccccc23)NC(=O)[C@H]([C@@H](C)CC)NC1=O [Compound 6] (Ac-ICIWQDWGSHRCT-NH2; disulfide 2-12) | > 6.60 | pIC50 [2]: 6.85 |
| CC[C@H](C)[C@H](NC(=O)[C@H](N)Cc1ccc(O)cc1)C(=O)N[C@H]1CSSC[C@@H](C(=O)N(C)[C@H](C(N)=O)[C@@H](C)CC)NC(=O)[C@H](CCCNC(=N)N)NC(=O)[C@H](Cc2c[nH]cn2)NC(=O)[C@H](C)NC(=O)CN(C)C(=O)[C@H](Cc2c[nH]c3ccccc23)NC(=O)[C@H](CC(=O)O)NC(=O)[C@H](CCC(N)=O)NC(=O)[C@H](Cc2cn(C)c3ccccc23)NC(=O)[C@H]([C@@H](C)CC)NC1=O [Compound 48, H-{d}YIC(1)I[1-Me-Trp]QDW[Sar]AHRC(1)[N-Me-Ile]-NH2] (H-[dY]ICI[Trp(1-Me)]QDW[Sar]AHRC[NMeI]-NH2; disulfide 3-13) | > 7.00 | – |
| CC[C@H](C)[C@@H]1NC(=O)[C@@H](NC(=O)[C@H](Cc2ccccc2)NC(=O)[C@H](CCC(=O)O)NC(=O)[C@H](CO)NC(C)=O)CSSC[C@@H](C(=O)N(C)CC(=O)N[C@@H](CCC(=O)O)C(=O)NCC(=O)N[C@@H](CCC(=O)O)C(=O)NCCOCCOCC(=O)N[C@@H](CCC(=O)O)C(=O)N[C@@H](CO)C(=O)N[C@@H](CCCCNC(=O)CC[C@H](NC(=O)CNC(=O)CC[C@H](NC(=O)CCCCCCCCCCCCCCCCC(=O)O)C(=O)O)C(=O)O)C(N)=O)NC(=O)[C@H](CCCNC(=N)N)NC(=O)[C@H](Cc2c[nH]cn2)NC(=O)[C@H](CCC(=O)O)NC(=O)CNC(=O)[C@H](Cc2c[nH]c3ccccc23)NC(=O)[C@H](CC(=O)O)NC(=O)[C@H](CCC(N)=O)NC(=O)[C@H](Cc2cn(C)c3ccccc23)NC1=O [Compound 140] (Ac-SEFCI[Trp(1-Me)]QDWGEHRC[Sar]EGE[AEEA]ESK([γGlu-Gly-γGlu-C18 diacid])-NH2; disulfide 4-14) | > 7.00 | – |
| CC[C@H](C)[C@@H]1NC(=O)[C@@H](NC(=O)[C@H](Cc2ccc(O)cc2)NC(C)=O)CSSC[C@@H](C(=O)N[C@H](C(=O)N[C@@H](CCC(=O)O)C(=O)N[C@@H](CO)C(=O)NCC(=O)N[C@@H](C)C(N)=O)[C@@H](C)O)NC(=O)[C@H](CCCNC(=N)N)NC(=O)[C@H](Cc2c[nH]cn2)NC(=O)[C@H](CCC(=O)O)NC(=O)CNC(=O)[C@H](Cc2c[nH]c3ccccc23)NC(=O)[C@H](CC(=O)O)NC(=O)[C@H](CCC(N)=O)NC(=O)[C@H](Cc2cn(C)c3ccccc23)NC1=O [Compound 69] (Ac-YCI[Trp(1-Me)]QDWGEHRCTESGA-NH2; disulfide 2-12) | > 7.00 | – |
| CC[C@H](C)[C@H](NC(C)=O)C(=O)N[C@H]1CSSC[C@@H](C(=O)N[C@H](C(N)=O)[C@@H](C)O)NC(=O)[C@H](CCCNC(=N)N)NC(=O)[C@H](Cc2c[nH]cn2)NC(=O)[C@H](CC(=O)O)NC(=O)CNC(=O)[C@H](Cc2c[nH]c3ccccc23)NC(=O)[C@H](CC(=O)O)NC(=O)[C@H](CCC(N)=O)NC(=O)[C@H](Cc2c[nH]c3ccccc23)NC(=O)[C@H]([C@@H](C)CC)NC1=O [Compound 17] (Ac-ICIWQDWGDHRCT-NH2; disulfide 2-12) | > 7.00 | – |
| CC[C@H](C)[C@@H]1NC(=O)[C@@H](NC(=O)CN(C)C(=O)[C@H](N)Cc2ccc(O)cc2)CSSC[C@@H](C(=O)N[C@H](C(=O)N[C@@H](CCC(=O)O)C(=O)N[C@@H](C)C(N)=O)[C@@H](C)O)NC(=O)[C@H](CCCNC(=N)N)NC(=O)[C@H](Cc2c[nH]cn2)NC(=O)[C@H](CCC(=O)O)NC(=O)CNC(=O)[C@H](Cc2c[nH]c3ccccc23)NC(=O)[C@H](CC(=O)O)NC(=O)[C@H](CCC(N)=O)NC(=O)[C@H](Cc2cn(C)c3ccccc23)NC1=O [Compound 91] (H-[dY][Sar]CI[Trp(1-Me)]QDWGEHRCTEA-NH2; disulfide 3-13) | > 7.00 | – |
| CC[C@H](C)[C@@H]1NC(=O)[C@@H](NC(=O)[C@H](Cc2ccccc2)NC(=O)[C@H](CCC(=O)O)NC(=O)[C@H](CO)NC(C)=O)CSSC[C@@H](C(=O)N(C)CC(=O)N[C@@H](CCC(=O)O)C(=O)N[C@@H](C)C(N)=O)NC(=O)[C@H](CCCNC(=N)N)NC(=O)[C@H](Cc2c[nH]cn2)NC(=O)[C@H](CCC(=O)O)NC(=O)CNC(=O)[C@H](Cc2c[nH]c3ccccc23)NC(=O)[C@H](CCC(=O)O)NC(=O)[C@H](CCC(N)=O)NC(=O)[C@H](Cc2cn(C)c3ccccc23)NC1=O [Compound 83] (Ac-SEFCI[Trp(1-Me)]QEWGEHRC[Sar]EA-NH2; disulfide 4-14) | > 7.00 | – |
| CC[C@H](C)[C@@H]1NC(=O)[C@@H](NC(=O)[C@@H](NC(=O)[C@H](CCC(=O)O)NC(=O)CNC(=O)[C@H](CCC(=O)O)NC(C)=O)[C@@H](C)CC)CSSC[C@@H](C(=O)N[C@@H](CCC(=O)O)C(=O)NCC(=O)N[C@@H](CCC(=O)O)C(N)=O)NC(=O)[C@H](CCCNC(=N)N)NC(=O)[C@H](Cc2c[nH]cn2)NC(=O)[C@H](CCC(=O)O)NC(=O)CNC(=O)[C@H](Cc2c[nH]c3ccccc23)NC(=O)[C@H](CC(=O)O)NC(=O)[C@H](CCC(N)=O)NC(=O)[C@H](Cc2c[nH]c3ccccc23)NC1=O [Compound 35] (Ac-EGEICIWQDWGEHRCEGE-NH2; disulfide 5-15) | > 6.30 | – |
